{"source": "patent US9730940B2", "about": "“Purine inhibitors of human phosphatidylinositol 3-kinase delta” (priority 2012, dated 2017)"}
{"target": "PI3K-alpha (Homo sapiens (Human), UniProt P42336)", "sequence (P42336 whole entry, looked up, canonical isoform)": "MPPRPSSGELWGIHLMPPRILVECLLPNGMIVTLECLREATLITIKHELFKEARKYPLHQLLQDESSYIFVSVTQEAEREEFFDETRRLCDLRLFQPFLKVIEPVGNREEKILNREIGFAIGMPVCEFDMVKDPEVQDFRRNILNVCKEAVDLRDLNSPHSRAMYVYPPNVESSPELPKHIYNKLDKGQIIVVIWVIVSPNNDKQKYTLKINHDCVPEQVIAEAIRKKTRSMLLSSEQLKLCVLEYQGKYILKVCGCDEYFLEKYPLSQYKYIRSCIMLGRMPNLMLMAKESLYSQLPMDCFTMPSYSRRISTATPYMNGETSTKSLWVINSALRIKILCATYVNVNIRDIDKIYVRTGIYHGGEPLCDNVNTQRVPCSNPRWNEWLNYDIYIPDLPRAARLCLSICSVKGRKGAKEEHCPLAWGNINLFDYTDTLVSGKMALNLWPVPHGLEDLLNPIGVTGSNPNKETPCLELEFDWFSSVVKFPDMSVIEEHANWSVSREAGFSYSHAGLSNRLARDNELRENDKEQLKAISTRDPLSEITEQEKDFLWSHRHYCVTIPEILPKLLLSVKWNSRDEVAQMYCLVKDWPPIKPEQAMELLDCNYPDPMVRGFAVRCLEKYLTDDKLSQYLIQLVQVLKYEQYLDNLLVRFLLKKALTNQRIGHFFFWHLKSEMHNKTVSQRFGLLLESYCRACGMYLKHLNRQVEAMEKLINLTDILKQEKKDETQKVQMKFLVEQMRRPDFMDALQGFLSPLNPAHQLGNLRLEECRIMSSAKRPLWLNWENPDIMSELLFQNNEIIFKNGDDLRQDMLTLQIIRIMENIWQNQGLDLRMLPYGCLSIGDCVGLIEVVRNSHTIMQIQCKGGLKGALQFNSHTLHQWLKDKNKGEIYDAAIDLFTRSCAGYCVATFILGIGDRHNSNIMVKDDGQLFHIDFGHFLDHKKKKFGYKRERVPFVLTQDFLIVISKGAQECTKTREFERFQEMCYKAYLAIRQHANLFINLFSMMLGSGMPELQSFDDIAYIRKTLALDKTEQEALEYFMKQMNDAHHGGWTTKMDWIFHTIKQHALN", "sequence (P27986 whole entry partner, looked up, canonical isoform)": "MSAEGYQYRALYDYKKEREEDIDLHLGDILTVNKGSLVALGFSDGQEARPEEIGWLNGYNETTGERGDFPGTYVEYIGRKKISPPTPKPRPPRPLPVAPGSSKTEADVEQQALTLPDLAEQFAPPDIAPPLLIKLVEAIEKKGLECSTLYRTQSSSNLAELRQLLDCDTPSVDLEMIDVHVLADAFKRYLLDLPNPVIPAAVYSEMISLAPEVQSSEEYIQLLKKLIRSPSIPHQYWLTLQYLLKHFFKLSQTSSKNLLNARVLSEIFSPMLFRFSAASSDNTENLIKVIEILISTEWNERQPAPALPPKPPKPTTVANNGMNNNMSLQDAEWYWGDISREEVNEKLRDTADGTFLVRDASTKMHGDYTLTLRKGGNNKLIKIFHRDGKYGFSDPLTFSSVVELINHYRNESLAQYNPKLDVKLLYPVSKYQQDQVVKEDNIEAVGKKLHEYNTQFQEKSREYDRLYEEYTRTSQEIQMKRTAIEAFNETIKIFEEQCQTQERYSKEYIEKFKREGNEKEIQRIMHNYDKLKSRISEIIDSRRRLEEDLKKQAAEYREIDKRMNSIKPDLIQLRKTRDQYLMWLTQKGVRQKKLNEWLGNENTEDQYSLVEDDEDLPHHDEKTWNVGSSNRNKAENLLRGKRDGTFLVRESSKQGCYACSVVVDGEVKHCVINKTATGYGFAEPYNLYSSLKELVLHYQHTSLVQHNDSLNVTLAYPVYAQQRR", "assay": "HTRF PI3K biochemical assay, alpha isoform", "settings": "ratio PI3K-alpha IC50 value/PI3K-delta IC50 value"}
{"smiles": "CCC(=O)N1CC[C@H](Oc2ncnc3c2nc(-c2cnc(OC)c(C#N)c2)n3C)C1", "note": "[Compound 3-37, 2-methoxy-5-(9-methyl-6-{[(3S)-1-propanoylpyrrolidin-3-yl]oxy}-9H-purin-8-yl)pyridine-3-carbonitrile]", "Relative Selectivity versus PI3Kalpha": ">10"}
{"smiles": "CCn1ncc(-c2nc3c(S[C@H]4CCN(C(=O)C5CCOCC5)C4)ncnc3n2C)c1C", "note": "[Compound 10-3, (S)-(3-((8-(1-ethyl-5-methyl-1H-pyrazol-4-yl)-9-methyl-9H-purin-6-yl)thio)pyrrolidin-1-yl)(tetrahydro-2H-pyran-4-yl)methanone]", "Relative Selectivity versus PI3Kalpha": ">10"}
{"smiles": "CCn1ncc(-c2nc3c(O[C@H]4CCN(C(=O)c5cnoc5C(C)C)C4)ncnc3n2C)c1C", "note": "[Compound 2-87, 8-(1-ethyl-5-methyl-1H-pyrazol-4-yl)-9-methyl-6-{[(3S)-1-{[5-(1-methylethyl)isoxazol-4-yl]carbonyl}pyrrolidin-3-yl]oxy}-9H-purine]", "Relative Selectivity versus PI3Kalpha": ">10"}
{"smiles": "CCn1c(-c2cnc(C)nc2)nc2c(O[C@H]3CCN(C(=O)C4CNC4)C3)ncnc21", "note": "[Compound 2-102, 6-{[(3S)-1-(azetidin-3-ylcarbonyl)pyrrolidin-3-yl]oxy}-9-ethyl-8-(2-methylpyrimidin-5-yl)-9H-purine]", "Relative Selectivity versus PI3Kalpha": ">10"}
{"smiles": "CCn1c(-c2cnc(OC)c(F)c2)nc2c(O[C@H]3CCN(C(=O)C4CC(F)(F)C4)C3)ncnc21", "note": "[Compound 3-55, 6-({(3S)-1-[(3,3-difluorocyclobutyl)carbonyl]pyr-rolidin-3-yl}oxy)-9-ethyl-8-(5-fluoro-6-methoxypyridin-3-yl)-9H-purine]", "Relative Selectivity versus PI3Kalpha": ">10"}
{"smiles": "CCn1ncc(-c2nc3c(O[C@H]4CCN(C(=O)C5CC(F)(F)C5)C4)ncnc3n2C)c1C", "note": "[Compound 2-106, 6-({(3S)-1-[(3,3-difluorocyclobutyl)carbonyl]pyrrolidin-3-yl}oxy)-8-(1-ethyl-5-methyl-1H-pyrazol-4-yl)-9-methyl-9H-purine]", "Relative Selectivity versus PI3Kalpha": ">10"}
{"smiles": "CCn1ncc(-c2nc3c(O[C@H]4CCN(C(=O)c5cnn6cccnc56)C4)ncnc3n2C)c1C", "note": "[Compound 2-41, 8-(1-ethyl-5-methyl-1H-pyrazol-4-yl)-9-methyl-6-{[(3S)-1-(pyrazolo[1,5-a]pyrimidin-3-ylcarbonyl)pyrrolidin-3-yl]oxy}-9H-purine]", "Relative Selectivity versus PI3Kalpha": 6}
{"smiles": "CCn1ncc(-c2nc3c(O[C@H]4CCN(C(=O)c5c[nH]nc5C(F)(F)F)C4)ncnc3n2C)c1C", "note": "[Compound 2-43, 8-(1-ethyl-5-methyl-1H-pyrazol-4-yl)-9-methyl-6-{[(3S)-1-{[3-(trifluoromethyl)-1H-pyrazol-4-yl]carbonyl}pyrrolidin-3-yl]oxy}-9H-purine]", "Relative Selectivity versus PI3Kalpha": 10}
{"smiles": "CCn1c(-c2cnc(C)nc2)nc2c(O[C@H]3C[C@@H](NC(=O)OC(C)(C)C)C3)ncnc21", "note": "[Compound 9-5, tert-butyl (cis-3-{[9-ethyl-8-(2-methylpyrimidin-5-yl)-9H-purin-6-yl]oxy}cyclobutyl)carbamate]", "Relative Selectivity versus PI3Kalpha": ">10"}
{"smiles": "CCn1ncc(-c2nc3c(O[C@H]4CCN(C(=O)c5ocnc5C)C4)ncnc3n2C)c1C", "note": "[Compound 2-71, 8-(1-ethyl-5-methyl-1H-pyrazol-4-yl)-9-methyl-6-({(3S)-1-[(4-methyl-1,3-oxazol-5-yl)carbonyl]pyrrolidin-3-yl}oxy)-9H-purine]", "Relative Selectivity versus PI3Kalpha": ">10"}
{"smiles": "Cn1c(-c2ccc(-n3cccn3)cc2)nc2c(O[C@H]3CCN(C(=O)OC(C)(C)C)C3)ncnc21", "note": "[Compound 1-15, tert-butyl (3S)-3-({9-methyl-8-[4-(1H-pyrazol-1-yl)phenyl]-9H-purin-6-yl}oxy)pyrrolidine-1-carboxylate]", "Relative Selectivity versus PI3Kalpha": ">10"}
{"smiles": "CCn1c(-c2cnc(OC)c(F)c2)nc2c(O[C@H]3CCN(C(=O)C4CC4)C3)ncnc21", "note": "[Compound 3-53, 6-{[(3S)-1-(cyclopropylcarbonyl)pyrrolidin-3-yl]oxy}-9-ethyl-8-(5-fluoro-6-methoxypyridin-3-yl)-9H-purine]", "Relative Selectivity versus PI3Kalpha": ">10"}
{"smiles": "CCn1ncc(-c2nc3c(O[C@H]4CCN(C(=O)OCc5ccccc5)C4)ncnc3n2C)c1C", "note": "[Compound 1-6, benzyl (3S)-3-{[8-(1-ethyl-5-methyl-1H-pyrazol-4-yl)-9-methyl-9H-purin-6-yl]oxy}pyrrolidine-1-carboxylate]", "Relative Selectivity versus PI3Kalpha": 4}
{"smiles": "CCn1c(-c2cnc(OC)c(C)c2)nc2c(O[C@H]3CCN(C(=O)C4CC4)C3)ncnc21", "note": "[Compound 3-49, 6-{[(3S)-1-(cyclopropylcarbonyl)pyrrolidin-3-yl]oxy}-9-ethyl-8-(6-methoxy-5-methylpyridin-3-yl)-9H-purine]", "Relative Selectivity versus PI3Kalpha": ">10"}
{"smiles": "CCn1ncc(-c2nc3c(O[C@H]4CCN(C(=O)c5ccc(N6CCN(C)CC6)cc5)C4)ncnc3n2C)c1C", "note": "[Compound 2-21, 8-(1-ethyl-5-methyl-1H-pyrazol-4-yl)-9-methyl-6-{[(3S)-1-{[4-(4-methylpiperazin-1-yl)phenyl]carbonyl}pyrrolidin-3-yl]oxy}-9H-purine]", "Relative Selectivity versus PI3Kalpha": 1}
{"smiles": "CCC(=O)N1CC[C@H](Oc2ncnc3c2nc(-c2cnn4c2CCCC4)n3C)C1", "note": "[Compound 3-40, 9-methyl-6-{[(3S)-1-propanoylpyrrolidin-3-yl]oxy}-8-(4,5,6,7-tetrahydropyrazolo[1,5-a]pyridin-3-yl)-9H-purine]", "Relative Selectivity versus PI3Kalpha": ">10"}
{"smiles": "CCNC(=O)N1CC[C@H](Oc2ncnc3c2nc(-c2cnn(CC)c2C)n3C)C1", "note": "[Compound 5-7, (S)-N-ethyl-3-((8-(1-ethyl-5-methyl-1H-pyrazol-4-yl)-9-methyl-9H-purin-6-yl]oxy}pyrrolidine-1-carboxamide]", "Relative Selectivity versus PI3Kalpha": ">10"}
{"smiles": "CCn1ncc(-c2nc3c(O[C@H]4CCN(C(=O)C(C)(C)C)C4)ncnc3n2C)c1C", "note": "[Compound 2-92, (S)-1-(3-((8-(1-ethyl-5-methyl-1H-pyrazol-4-yl)-9-methyl-9H-purin-6-yl)oxy)pyrrolidin-1-yl)-2,2-dimethylpropan-1-one]", "Relative Selectivity versus PI3Kalpha": ">10"}
{"smiles": "CCn1ncc(-c2nc3c(O[C@H]4CCN(c5nccc(-c6ccco6)n5)C4)ncnc3n2C)c1C", "note": "[Compound 7-10, 8-(1-ethyl-5-methyl-1H-pyrazol-4-yl)-6-{[(3S)-1-(4-furan-2-ylpyrimidin-2-yl)pyrrolidin-3-yl]oxy}-9-methyl-9H-purine]", "Relative Selectivity versus PI3Kalpha": ">10"}
{"smiles": "CCn1c(-c2cnc(C)nc2)nc2c(O[C@H]3CCN(C(=O)[C@@H](N)C(C)C)C3)ncnc21", "note": "[Compound 2-111, (2S)-1-[(3S)-3-{[9-ethyl-8-(2-methylpyrimidin-5-yl)-9H-purin-6-yl]oxy}pyrrolidin-1-yl]-3-methyl-1-oxobutan-2-amine]", "Relative Selectivity versus PI3Kalpha": ">10"}
{"smiles": "CCn1ncc(-c2nc3c(O[C@H]4CCN(c5ncccn5)C4)ncnc3n2C)c1C", "note": "[Compound 7-1, 8-(1-ethyl-5-methyl-1H-pyrazol-4-yl)-9-methyl-6-{[(3S)-1-pyrimidin-2-ylpyrrolidin-3-yl]oxy}-9H-purine]", "Relative Selectivity versus PI3Kalpha": ">10"}
